According to PMC3185947 (British Journal of Cancer, 2011):
Marks after values point to notes of the source that are not given here.

Columns and labels:
[1] = test system: patients with previously treated advanced NSCLC; assay: Erlotinib-related toxicities (worst grade per patient), NCI CTC Version 2.0; format: in vivo, human
[2] = test system: patients receiving erlotinib 150 mg per day; design: method as in earlier work; details: ref Shepherd et al, 2005, Perez-Soler and Van Cutsem, 2007; cited from earlier work
[3] = erlotinib 175–200 mg (N=13), non-cutaneous dose limiting toxicity reported
[4] = erlotinib 225–275 mg (N=18), non-cutaneous dose limiting toxicity reported

C#Cc1cccc(Nc2ncnc3cc(OCCOC)c(OCCOC)cc23)c1 [erlotinib]
Skin fissures, grade 3–4 ([1]; erlotinib 100–150 mg (N=4)): 0 (0) n (%)
Skin fissures, grade Any ([1]; erlotinib 100–150 mg (N=4)): 1 (25) n (%)
Stomatitis, grade 3–4 ([1]; erlotinib 100–150 mg (N=4)): 0 (0) n (%)
Stomatitis, grade Any ([1]; erlotinib 100–150 mg (N=4)): 2 (50) n (%)
Vomiting, grade 3–4 ([1]; erlotinib 100–150 mg (N=4)): 0 (0) n (%)
Vomiting, grade Any ([1]; erlotinib 100–150 mg (N=4)): 2 (50) n (%)
Alopecia, grade 3–4 ([1]; erlotinib 175–200 mg (N=13)): 0 (0) n (%)
Alopecia, grade Any ([1]; erlotinib 175–200 mg (N=13)): 0 (0) n (%)
Anorexia, grade 3–4 ([1]; erlotinib 175–200 mg (N=13)): 0 (0) n (%)
Anorexia, grade Any ([1]; erlotinib 175–200 mg (N=13)): 0 (0) n (%)
Creatinine, grade Any ([1]; erlotinib 175–200 mg (N=13)): 1 (8) n (%)
Diarrhea, grade 3–4 ([1]; erlotinib 175–200 mg (N=13)): 0 (0) n (%)
Diarrhea, grade Any ([1]; erlotinib 175–200 mg (N=13)): 9 (69) n (%)
Epistaxis, grade 3–4 ([1]; erlotinib 175–200 mg (N=13)): 0 (0) n (%)
Epistaxis, grade Any ([1]; erlotinib 175–200 mg (N=13)): 0 (0) n (%)
Fatigue, grade Any ([1]; erlotinib 175–200 mg (N=13)): 4 (31) n (%)
Headache, grade 3–4 ([1]; erlotinib 175–200 mg (N=13)): 0 (0) n (%)
Headache, grade Any ([1]; erlotinib 175–200 mg (N=13)): 0 (0) n (%)
Nausea, grade 3–4 ([1]; erlotinib 175–200 mg (N=13)): 0 (0) n (%)
Nausea, grade Any ([1]; erlotinib 175–200 mg (N=13)): 5 (38) n (%)
Paronychia, grade 3–4 ([1]; erlotinib 175–200 mg (N=13)): 0 (0) n (%)
Paronychia, grade Any ([1]; erlotinib 175–200 mg (N=13)): 0 (0) n (%)
Skin fissures, grade 3–4 ([1]; erlotinib 175–200 mg (N=13)): 0 (0) n (%)
Skin fissures, grade Any ([1]; erlotinib 175–200 mg (N=13)): 0 (0) n (%)
Stomatitis, grade 3–4 ([1]; erlotinib 175–200 mg (N=13)): 0 (0) n (%)
Stomatitis, grade Any ([1]; erlotinib 175–200 mg (N=13)): 5 (38) n (%)
Vomiting, grade 3–4 ([1]; erlotinib 175–200 mg (N=13)): 0 (0) n (%)
Vomiting, grade Any ([1]; erlotinib 175–200 mg (N=13)): 5 (38) n (%)
Creatinine, grade 3–4 [1, 3]: 1 (8) ^a n (%)
Fatigue, grade 3–4 [1, 3]: 1 (8) ^a n (%)
Alopecia, grade 3–4 ([1]; erlotinib 225–275 mg (N=18)): 0 (0) n (%)
Alopecia, grade Any ([1]; erlotinib 225–275 mg (N=18)): 4 (22) n (%)
Anorexia, grade Any ([1]; erlotinib 225–275 mg (N=18)): 6 (33) n (%)
Creatinine, grade 3–4 ([1]; erlotinib 225–275 mg (N=18)): 0 (0) n (%)
Creatinine, grade Any ([1]; erlotinib 225–275 mg (N=18)): 0 (0) n (%)
Diarrhea, grade 3–4 ([1]; erlotinib 225–275 mg (N=18)): 1 (6) n (%)
Diarrhea, grade Any ([1]; erlotinib 225–275 mg (N=18)): 13 (72) n (%)
Epistaxis, grade 3–4 ([1]; erlotinib 225–275 mg (N=18)): 0 (0) n (%)
Epistaxis, grade Any ([1]; erlotinib 225–275 mg (N=18)): 3 (17) n (%)
Fatigue, grade Any ([1]; erlotinib 225–275 mg (N=18)): 6 (33) n (%)
Headache, grade Any ([1]; erlotinib 225–275 mg (N=18)): 1 (6) n (%)
Nausea, grade 3–4 ([1]; erlotinib 225–275 mg (N=18)): 0 (0) n (%)
Nausea, grade Any ([1]; erlotinib 225–275 mg (N=18)): 9 (50) n (%)
Paronychia, grade 3–4 ([1]; erlotinib 225–275 mg (N=18)): 0 (0) n (%)
Paronychia, grade Any ([1]; erlotinib 225–275 mg (N=18)): 3 (17) n (%)
Skin fissures, grade 3–4 ([1]; erlotinib 225–275 mg (N=18)): 1 (6) n (%)
Skin fissures, grade Any ([1]; erlotinib 225–275 mg (N=18)): 2 (11) n (%)
Stomatitis, grade 3–4 ([1]; erlotinib 225–275 mg (N=18)): 0 (0) n (%)
Stomatitis, grade Any ([1]; erlotinib 225–275 mg (N=18)): 6 (33) n (%)
Vomiting, grade 3–4 ([1]; erlotinib 225–275 mg (N=18)): 0 (0) n (%)
Vomiting, grade Any ([1]; erlotinib 225–275 mg (N=18)): 5 (28) n (%)
Anorexia, grade 3–4 [1, 4]: 1 (6) ^a n (%)
Fatigue, grade 3–4 [1, 4]: 2 (11) ^a n (%)
Headache, grade 3–4 [1, 4]: 1 (6) ^a n (%)
Alopecia, grade 3–4 ([1]; erlotinib ⩾300 mg (N=7)): 0 (0) n (%)
Alopecia, grade Any ([1]; erlotinib ⩾300 mg (N=7)): 2 (29) n (%)
Anorexia, grade 3–4 ([1]; erlotinib ⩾300 mg (N=7)): 0 (0) n (%)
Anorexia, grade Any ([1]; erlotinib ⩾300 mg (N=7)): 3 (43) n (%)
Creatinine, grade 3–4 ([1]; erlotinib ⩾300 mg (N=7)): 0 (0) n (%)
Creatinine, grade Any ([1]; erlotinib ⩾300 mg (N=7)): 0 (0) n (%)
Diarrhea, grade 3–4 ([1]; erlotinib ⩾300 mg (N=7)): 0 (0) n (%)
Diarrhea, grade Any ([1]; erlotinib ⩾300 mg (N=7)): 7 (100) n (%)
Epistaxis, grade 3–4 ([1]; erlotinib ⩾300 mg (N=7)): 0 (0) n (%)
Epistaxis, grade Any ([1]; erlotinib ⩾300 mg (N=7)): 2 (29) n (%)
Fatigue, grade 3–4 ([1]; erlotinib ⩾300 mg (N=7)): 0 (0) n (%)
Fatigue, grade Any ([1]; erlotinib ⩾300 mg (N=7)): 4 (57) n (%)
Headache, grade 3–4 ([1]; erlotinib ⩾300 mg (N=7)): 0 (0) n (%)
Headache, grade Any ([1]; erlotinib ⩾300 mg (N=7)): 0 (0) n (%)
Nausea, grade 3–4 ([1]; erlotinib ⩾300 mg (N=7)): 0 (0) n (%)
Nausea, grade Any ([1]; erlotinib ⩾300 mg (N=7)): 5 (71) n (%)
Paronychia, grade Any ([1]; erlotinib ⩾300 mg (N=7)): 2 (29) n (%)
Skin fissures, grade 3–4 ([1]; erlotinib ⩾300 mg (N=7)): 0 (0) n (%)
Skin fissures, grade Any ([1]; erlotinib ⩾300 mg (N=7)): 2 (29) n (%)
Stomatitis, grade 3–4 ([1]; erlotinib ⩾300 mg (N=7)): 0 (0) n (%)
Stomatitis, grade Any ([1]; erlotinib ⩾300 mg (N=7)): 1 (14) n (%)
Vomiting, grade 3–4 ([1]; erlotinib ⩾300 mg (N=7)): 0 (0) n (%)
Vomiting, grade Any ([1]; erlotinib ⩾300 mg (N=7)): 3 (43) n (%)
Paronychia, grade 3–4 ([1]; erlotinib ⩾300 mg (N=7), non-cutaneous dose limiting toxicity reported): 1 (14) ^a n (%)
Non-cutaneous DLT: grade 3 anorexia ([1]; human, in vivo): one
Non-cutaneous DLT: grade 3 creatinine elevation ([1]; human, in vivo): one
Non-cutaneous DLT: grade 3 fatigue ([1]; human, in vivo): three
Non-cutaneous DLT: grade 3 headache ([1]; human, in vivo): one
Non-cutaneous DLT: grade 3 paronychia ([1]; human, in vivo): one
Patients who discontinued treatment due to protracted grade 3 anorexia and grade 2 nausea ([1]; human, in vivo): One
Patients who experienced non-cutaneous DLT ([1]; of 42 patients): Seven
Patients who developed NCI CTC grade 2 or 3 rash [2]: ~30%
